Experimental data from PubChem BioAssay (NCI).
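Grown in 96-well plates, cells were treated for 48 hours with each compound at five concentrations. Insufficient inhibition: endpoint recorded as highest concentration tested. TGI: concentration producing complete growth inhibition.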

What was measured:
Experiment in all cases: inhibition of tumour cell growth, NCI panel, 48 h
UACC-257 melanoma = system: UACC-257 melanoma
ACHN renal = system: ACHN renal
PC-3 prostate = system: PC-3 prostate
NCI/ADR-RES ovarian = system: NCI/ADR-RES ovarian
HCC-2998 colon = system: HCC-2998 colon
HCT-15 colon = system: HCT-15 colon
HCT-116 colon = system: HCT-116 colon
CAKI-1 renal = system: CAKI-1 renal
U251 CNS = system: U251 CNS
KM12 colon = system: KM12 colon
SK-MEL-5 melanoma = system: SK-MEL-5 melanoma
MALME-3M melanoma = system: MALME-3M melanoma
SK-MEL-28 melanoma = system: SK-MEL-28 melanoma
SR leukemia = system: SR leukemia

Row | Structure (SMILES) | TGI (UACC-257 melanoma) [µM] | TGI (ACHN renal) [µM] | TGI (PC-3 prostate) [µM] | TGI (NCI/ADR-RES ovarian) [µM] | TGI (HCC-2998 colon) [µM] | TGI (HCT-15 colon) [µM] | TGI (HCT-116 colon) [µM] | TGI (CAKI-1 renal) [µM] | TGI (U251 CNS) [µM] | TGI (KM12 colon) [µM] | TGI (SK-MEL-5 melanoma) [µM] | TGI (MALME-3M melanoma) [µM] | TGI (SK-MEL-28 melanoma) [µM] | TGI (SR leukemia) [µM]
1 | CC1=C(C(=O)NCCc2ccccc2)CC(C(=O)NCCc2ccccc2)=C(C)N1 | > 100 | > 100 | > 100 | > 100 | > 100 | > 100 | > 100 | > 100 | > 100 | > 100 |  |  |  | 
2 | COC(=O)C(=O)C(C(=O)C(=O)Nc1ccccc1C(C)=O)c1nc2ccc(C(=O)c3ccccc3)cc2[nH]c1=O (stereo not given) | > 100 | > 100 | > 100 | > 100 | > 100 | > 100 | > 100 | > 100 |  | > 100 | > 100 | > 100 |  | 
3 | CC(=O)N(CCc1ccccc1)C(C#N)c1ccc(OCCCCCCCCCCOc2ccc(C(C#N)N(CCc3ccccc3)C(C)=O)cc2)cc1 (stereo not given) | > 100 | > 100 | > 100 | > 100 | > 100 | > 100 | > 100 | > 100 | 64.1 | > 100 | > 100 | > 100 | > 100 | 
4 | COc1cc(C2C3=C(COC3=O)Oc3cc4c(cc32)OCO4)ccc1OC(C)=O (stereo not given) | > 100 | > 100 | > 100 | > 100 | 5.96 | > 100 | > 100 | 0.904 | > 100 | 23.8 | > 100 | 0.565 | > 100 | 
5 | CSc1nc(NC(=O)O)c(N(C(C)=O)C(=O)O)c(=O)n1C | > 100 | > 100 |  |  | > 100 | > 100 | > 100 | > 100 | > 100 | > 100 | > 100 | > 100 | > 100 | 
6 | Cc1cccc(C)c1NC(=S)NC=C(C(N)=O)C(N)=O | > 100 | > 100 | > 100 | > 100 | > 100 | > 100 | > 100 | > 100 | > 100 | > 100 | > 100 |  | > 100 | 
7 | COc1cc(C=Nc2ccc(C(C)C)cc2)cc(OC)c1OC | > 100 | > 100 |  |  |  | > 100 | > 100 | > 100 | > 100 | > 100 | > 100 | > 100 | > 100 | > 100
8 | N#CC(Nc1ccccc1)c1ccc(C(C#N)Nc2ccccc2)cc1 (stereo not given) | > 100 | > 100 | > 100 | > 100 | > 100 | > 100 | > 100 | > 100 | > 100 | > 100 | > 100 | > 100 | > 100 | 
9 | CC1(C)CCC[C@@]2(C)C1CC[C@H]1CC(O)C3(C)CCC12C3 (stereo not given in full) | 32.1 | 31.8 |  |  | 34.1 | 32.9 | 31 | 32 | 32.3 | 31.3 | 31.4 | 30.7 | 33.7 | 46.7
10 | COC(=O)c1ccccc1/C=C1\Cc2cc(C)cc(C)c2C1=O | > 100 | > 100 | > 100 |  | > 100 | > 100 | > 100 |  | > 100 | > 100 | > 100 | > 100 | > 100 | > 100
11 | COc1cc(Nc2cnc3cc(F)c(F)cc3n2)cc(OC)c1 | > 100 | > 100 | > 100 | > 100 |  | > 100 | > 100 | > 100 | > 100 | > 100 | > 100 | > 100 | > 100 | > 100
12 | CC(C)C1CCC/C=C/C=C/C=C/C=C/C(OC2OC(C)C(O)C(N)C2O)CC2OC(O)(CC(O)CC(O)C(O)CCC(=O)O1)CC(O)C2C(=O)O (stereo not given) |  | > 52.5 |  |  |  | > 52.5 | > 52.5 | > 52.5 | > 52.5 |  | > 52.5 | > 52.5 | > 52.5 | > 52.5
13 | C#C[C@]1(O)CCC2C3CCc4cc(Oc5nc(F)nc(-c6c7cc8ccccc8cc7c7n6CCS7)n5)ccc4C3CCC21C (stereo not given in full) | > 100 | > 100 |  |  | > 100 |  | > 100 |  | > 100 | > 100 | > 100 | > 100 | > 100 | 
14 | COc1ccc(NC(C)=O)cc1C1CCC(=O)N1 (stereo not given) | > 100 | > 100 | > 100 | > 100 | > 100 | > 100 | > 100 | > 100 | > 100 | > 100 | > 100 | > 100 | > 100 | 
15 | CC/C=C/C(=O)CC(O)(C(F)(F)F)C(F)(F)F | > 100 | > 100 |  | > 100 | > 100 | > 100 | > 100 |  | > 100 | > 100 | > 100 | > 100 | > 100 | > 100
16 | COC(=O)C12C3C4C5C3(C#N)C1C5(C(=O)OC)C42C(=O)N(C(C)C)C(C)C (stereo not given) | > 100 | > 100 |  |  | > 100 | > 60.4 | > 100 | > 100 | > 100 | > 100 | > 100 | > 100 | > 100 | 33.3
17 | CCOC(=O)[C@@H]1ON2O[C@H](OC3CCCC3(c3ccccc3)c3ccccc3)C[C@H]3OC(=O)[C@@H]1C32 (stereo not given in full) | > 100 | > 100 |  | > 100 | > 100 | > 100 | > 100 | 46 | > 100 | 85.4 | > 100 |  |  | 99.2
18 | COc1cc(NP(=O)(Oc2ccccc2)Oc2ccccc2)ccc1Nc1c2ccccc2nc2c1[nH]c1ccccc12 | > 48.5 | 11.9 | > 89.7 | 20.9 | 23.2 | > 37.3 | 63.8 | 17.3 | 6.85 | > 100 | 10.3 | 29.1 | 48.2 | 
